Measurements as given in ChEMBL document CHEMBL1201862, “PubChem BioAssay data set” (2004).
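Following 48 hours of exposure in 96-well plates, responses at five concentrations were used to interpolate endpoints linearly. GI50 = concentration required for 50% inhibition of growth.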 Calls of active or inactive are those of the source. No stated cut-off is given here; in the data, active = GI50 up to about 1.1 µM and inactive = higher.

Assays:
Experiment in all cases: inhibition of tumour cell growth, NCI panel, 48 h
A498 = system: A498
A549 = system: A549
ACHN = system: ACHN
CAKI-1 = system: CAKI-1
COLO 205 = system: COLO 205
DU-145 = system: DU-145
EKVX = system: EKVX
HCT-116 = system: HCT-116
HCT-15 = system: HCT-15
HOP-92 = system: HOP-92
HT-29 = system: HT-29
IGROV-1 = system: IGROV-1
KM12 = system: KM12
M14 = system: M14
MDA-MB-231 = system: MDA-MB-231
MDA-MB-435 = system: MDA-MB-435
MDA-N = system: MDA-N
NCI-H226 = system: NCI-H226
NCI-H23 = system: NCI-H23
NCI/ADR-RES = system: NCI/ADR-RES
OVCAR-3 = system: OVCAR-3
OVCAR-4 = system: OVCAR-4
OVCAR-5 = system: OVCAR-5
OVCAR-8 = system: OVCAR-8
PC-3 = system: PC-3
RXF 393 = system: RXF 393
SF-268 = system: SF-268
SF-295 = system: SF-295
SF-539 = system: SF-539
SK-MEL-28 = system: SK-MEL-28
SK-MEL-5 = system: SK-MEL-5
SN12C = system: SN12C
SNB-19 = system: SNB-19
SNB-75 = system: SNB-75
SW-620 = system: SW-620
TK-10 = system: TK-10
U-251 = system: U-251
UO-31 = system: UO-31
786-0 = system: 786-0
CCRF-CEM = system: CCRF-CEM
HCC 2998 = system: HCC 2998
HL-60 = system: HL-60
HOP-62 = system: HOP-62
Hs-578T = system: Hs-578T
K562 = system: K562
LOX IMVI = system: LOX IMVI
MCF7 = system: MCF7
MOLT-4 = system: MOLT-4
Malme-3M = system: Malme-3M
NCI-H460 = system: NCI-H460
NCI-H522 = system: NCI-H522
RPMI-8226 = system: RPMI-8226
SK-MEL-2 = system: SK-MEL-2
SK-OV-3 = system: SK-OV-3
SR = system: SR
T47D = system: T47D
UACC-257 = system: UACC-257
UACC-62 = system: UACC-62

CC(O)(C#N)CC(O)(C(F)(F)Cl)C(F)(F)Cl (centres undefined)
GI50 (A498): > 10 µM (inactive) | GI50 (A549): > 10 µM (inactive) | GI50 (ACHN): > 10 µM (inactive) | GI50 (CAKI-1): > 10 µM (inactive) | GI50 (COLO 205): > 10 µM (inactive) | GI50 (DU-145): > 10 µM (inactive) | GI50 (EKVX): > 10 µM (inactive) | GI50 (HCT-116): > 10 µM (inactive) | GI50 (HCT-15): > 10 µM | GI50 (HOP-92): > 10 µM (inactive) | GI50 (HT-29): > 10 µM (inactive) | GI50 (IGROV-1): > 10 µM (inactive) | GI50 (KM12): > 10 µM (inactive) | GI50 (M14): > 10 µM (inactive) | GI50 (MDA-MB-231): > 10 µM (inactive) | GI50 (MDA-MB-435): > 10 µM (inactive) | GI50 (MDA-N): > 10 µM (inactive) | GI50 (NCI-H226): > 10 µM (inactive) | GI50 (NCI-H23): > 10 µM (inactive) | GI50 (NCI/ADR-RES): > 10 µM (inactive) | GI50 (OVCAR-3): > 10 µM (inactive) | GI50 (OVCAR-4): > 10 µM (inactive) | GI50 (OVCAR-5): > 10 µM (inactive) | GI50 (OVCAR-8): > 10 µM (inactive) | GI50 (PC-3): > 10 µM (inactive) | GI50 (RXF 393): > 10 µM (inactive) | GI50 (SF-268): > 10 µM (inactive) | GI50 (SF-295): > 10 µM (inactive) | GI50 (SF-539): > 10 µM (inactive) | GI50 (SK-MEL-28): > 10 µM (inactive) | GI50 (SK-MEL-5): > 10 µM (inactive) | GI50 (SN12C): > 10 µM (inactive) | GI50 (SNB-19): > 10 µM (inactive) | GI50 (SNB-75): > 10 µM (inactive) | GI50 (SW-620): > 10 µM (inactive) | GI50 (TK-10): > 10 µM (inactive) | GI50 (U-251): > 10 µM (inactive) | GI50 (UO-31): > 10 µM (inactive)

CN(C)C(=O)c1nnsc1NN=O
GI50 (786-0): > 100 µM (inactive) | GI50 (A549): > 100 µM (inactive) | GI50 (ACHN): > 100 µM (inactive) | GI50 (CAKI-1): > 100 µM (inactive) | GI50 (CCRF-CEM): > 100 µM (inactive) | GI50 (COLO 205): > 100 µM (inactive) | GI50 (DU-145): > 100 µM (inactive) | GI50 (EKVX): > 100 µM (inactive) | GI50 (HCC 2998): > 100 µM (inactive) | GI50 (HCT-116): > 100 µM (inactive) | GI50 (HCT-15): > 100 µM | GI50 (HL-60): > 100 µM (inactive) | GI50 (HOP-62): > 100 µM (inactive) | GI50 (HOP-92): > 100 µM (inactive) | GI50 (HT-29): > 100 µM (inactive) | GI50 (Hs-578T): > 100 µM (inactive) | GI50 (IGROV-1): > 100 µM (inactive) | GI50 (K562): > 100 µM (inactive) | GI50 (KM12): > 100 µM (inactive) | GI50 (LOX IMVI): > 100 µM (inactive) | GI50 (M14): > 100 µM (inactive) | GI50 (MCF7): > 100 µM (inactive) | GI50 (MDA-MB-231): > 100 µM (inactive) | GI50 (MDA-MB-435): > 100 µM (inactive) | GI50 (MDA-N): > 100 µM (inactive) | GI50 (MOLT-4): > 100 µM (inactive) | GI50 (Malme-3M): > 100 µM (inactive) | GI50 (NCI-H226): > 100 µM (inactive) | GI50 (NCI-H23): > 100 µM (inactive) | GI50 (NCI-H460): > 100 µM (inactive) | GI50 (NCI-H522): > 100 µM (inactive) | GI50 (NCI/ADR-RES): > 100 µM (inactive) | GI50 (OVCAR-3): 87.7 µM (inactive) | GI50 (OVCAR-4): > 100 µM (inactive) | GI50 (OVCAR-5): > 100 µM (inactive) | GI50 (OVCAR-8): > 100 µM (inactive) | GI50 (PC-3): > 100 µM (inactive) | GI50 (RPMI-8226): > 100 µM (inactive) | GI50 (RXF 393): > 100 µM (inactive) | GI50 (SF-268): > 100 µM (inactive) | GI50 (SF-295): > 100 µM (inactive) | GI50 (SK-MEL-28): > 100 µM (inactive) | GI50 (SK-MEL-2): > 100 µM (inactive) | GI50 (SK-MEL-5): > 100 µM (inactive) | GI50 (SK-OV-3): > 100 µM (inactive) | GI50 (SN12C): > 100 µM (inactive) | GI50 (SNB-19): > 100 µM (inactive) | GI50 (SNB-75): > 100 µM (inactive) | GI50 (SR): > 100 µM (inactive) | GI50 (SW-620): > 100 µM (inactive) | GI50 (T47D): > 100 µM (inactive) | GI50 (U-251): > 100 µM (inactive) | GI50 (UACC-257): > 100 µM (inactive) | GI50 (UACC-62): > 100 µM (inactive) | GI50 (UO-31): > 100 µM (inactive)

CCOC(=O)C1(C(=O)OCC)COS(=O)OC1
GI50 (A498): > 100 µM (inactive) | GI50 (A549): > 100 µM (inactive) | GI50 (ACHN): 32.6 µM (inactive) | GI50 (CCRF-CEM): 10.6 µM (inactive) | GI50 (COLO 205): 23.8 µM (inactive) | GI50 (DU-145): > 100 µM (inactive) | GI50 (HCC 2998): 47.6 µM (inactive) | GI50 (HCT-116): 17.4 µM (inactive) | GI50 (HCT-15): 19.2 µM | GI50 (HOP-92): 12.6 µM (inactive) | GI50 (HT-29): > 100 µM (inactive) | GI50 (Hs-578T): 83.6 µM (inactive) | GI50 (K562): 21.4 µM (inactive) | GI50 (KM12): 28.7 µM (inactive) | GI50 (LOX IMVI): 13.2 µM (inactive) | GI50 (M14): > 100 µM (inactive) | GI50 (MCF7): 19.1 µM (inactive) | GI50 (MDA-MB-231): 16.9 µM (inactive) | GI50 (MDA-MB-435): 36.7 µM (inactive) | GI50 (MDA-N): 35.5 µM (inactive) | GI50 (MOLT-4): 16.4 µM (inactive) | GI50 (NCI-H226): 20.8 µM (inactive) | GI50 (NCI-H23): 49.7 µM (inactive) | GI50 (NCI-H460): 21.3 µM (inactive) | GI50 (NCI-H522): 0.604 µM (active) | GI50 (NCI/ADR-RES): 40 µM (inactive) | GI50 (OVCAR-3): 19.9 µM (inactive) | GI50 (OVCAR-4): 20.7 µM (inactive) | GI50 (OVCAR-8): 45.1 µM (inactive) | GI50 (PC-3): > 100 µM (inactive) | GI50 (RXF 393): 18.3 µM (inactive) | GI50 (SF-268): > 10 µM (inactive) | GI50 (SF-295): > 100 µM (inactive) | GI50 (SK-MEL-28): 35.1 µM (inactive) | GI50 (SK-MEL-5): 35.6 µM (inactive) | GI50 (SK-OV-3): > 100 µM (inactive) | GI50 (SN12C): > 100 µM (inactive) | GI50 (SNB-19): > 100 µM (inactive) | GI50 (SNB-75): 79.1 µM (inactive) | GI50 (SR): 17.8 µM (inactive) | GI50 (SW-620): 18.6 µM (inactive) | GI50 (T47D): 19.9 µM (inactive) | GI50 (TK-10): > 100 µM (inactive) | GI50 (U-251): > 100 µM (inactive) | GI50 (UACC-257): > 100 µM (inactive) | GI50 (UO-31): 70.3 µM (inactive)
